We go through 9 molecules from patent US6861529B2, “Cycloalkypyrrole-3-carboxylic acid derivatives and heterocycloalkylpyrrole-3-carboxylic acid derivatives” (Pfizer Inc, priority 2001, dated 2005).

The target in the assay is benzodiazepine site of the GABAA receptor. The assay can be described thus: Binding assay (3H-Ro15-1788 displacement, rat cortical tissue homogenate). Conditions: 0.5 nM 3H-Ro15-1788 [3H-Flumazenil], 30 min at 4° C., Cheng-Prussof equation.

By Ki is commonly meant the dissociation constant of the complex between target and ligand, obtained from inhibition or displacement. A low value points to a stronger hold on the target. As to `CN(C)CC1CCc2[nH]cc(C(=O)Nc3ccccn3)c2C(=O)C1` (stereo not drawn) [Example 9, 6-Dimethylaminomethyl-4-oxo-1,4,5,6,7,8-hexahydro-cyclohepta[b]pyrrole-3-carboxylic acid pyridin-2-ylamide], the Ki worked out at 23 nM.

The molecule `O=C(Nc1ccccn1)c1c[nH]c2c1C(=O)CC(c1ccc(F)cc1)CC2` (stereo not drawn) [Example 4, 6-(4-Fluoro-phenyl)-4-oxo-1,4,5,6,7,8-hexahydrocyclohepta[b]pyrrole-3-carboxylic acid pyridin-2-ylamide] registered a Ki of 7 nM.

As to `CC(C)C1CCc2[nH]cc(C(=O)Nc3ccccn3)c2C(=O)C1` (stereo not drawn) [Example 3, 6-Isopropyl-4-oxo-1,4,5,6,7,8-hexahydro-cyclohepta[b]pyrrole-3-carboxylic acid pyridin-2-ylamide], the inhibition constant (Ki) worked out at 1 nM.

In turn, `CC1CCc2[nH]cc(C(=O)Nc3ccccn3)c2C(=O)C1` (stereo not drawn) [Example 2, 6-Methyl-4-oxo-1,4,5,6,7,8-hexahydro-cydohepta[b]pyrrole-3-carboxylic acid pyridin-2-ylamide] showed a Ki of 2 nM.

Take `CN1CC2CCc3[nH]cc(C(=O)Nc4ccccn4)c3C(=O)C2C1` (stereo not drawn) [Example 8, 6-Methyl-4-oxo-4,4a,5,6,7,7a,8,9-octahydro-1H-1,6-diaza-cyclopenta[f]azulene-3-carboxylic acid pyridin-2-ylamide]: the Ki worked out at 8 nM.

Turning to `COc1ccc(C2CCc3[nH]cc(C(=O)Nc4ccccn4)c3C(=O)C2)cc1F` (stereo not drawn) [Example 5, 6-(3-Fluoro-4-methoxy-phenyl)-4-oxo-1,4,5,6,7,8-hexahydro-cyclohepta[b]pyrrole-3carboxylic acid pyridin-2-ylamide], the affinity corresponds to a Ki of 8 nM. In other words, the single-digit nanomolar range.

`O=C(Nc1ccccn1)c1c[nH]c2c1C(=O)C1CNCC1CC2` (stereo not drawn) [Example 7, 4-Oxo-4,4a,5,6,7,7a,8,9-octahydro-1H-1,6-diaza-cyclopenta[f]azulene-3-carboxylic acid pyridin-2-ylamide] registered a Ki of 7 nM.

On to `O=C(Nc1ccccn1)c1c[nH]c2c1C(=O)C1CN(Cc3ccccc3)CC1CC2` (stereo not drawn) [Example 6, 6-Benzyl-4-oxo-4,4a,5,6,7,7a,8,9-octahydro-1H-1,6-diaza-cyclopenta[f]azulene-3-carboxylic acid pyridin-2-ylamide], for which the affinity corresponds to a Ki of 4 nM.

`O=C(Nc1ccccn1)C1C=NC2=C1C(Nc1ccccn1)CCCC2` (stereo not drawn) [Example 10, 4-(Pyridin-2-ylamino)-3,4,5,6,7,8-hexahydro-cyclohepta[b]pyrrole-3-carboxylic acid pyridin-2-ylamide]: the Ki was 24 nM.
